Six compounds from patent US12564636B2, “Pnictogen-containing heterocyclic compounds and their use” (University of Rhode Island Board of Trustees, priority 2022, dated 2026) can be followed below.

SMILES strings stand for the structures.

Common to all, as to assay type: physicochemical
Data set [1] can be described thus: Second order reaction rate constant of CAP compound with cysteine (UV-Vis kinetics). The settings on record: similar reaction conditions (25° C., pH 7, 50 mM PIPES). On the procedure:
(§1) In a typical experiment, an aliquot of the stock solution of CAP1-a in water was added to nucleophile in PIPES buffer or water. The progress of the reaction was monitored by UV-Vis spectrometer at suitable wavelength. The pseudo first order reaction rate constant was determined by plotting the ln value of the concentration of CAP1-a against the reaction time. The pseudo first order reaction rate constant thus obtained was plotted against the concentration of the nucleophile. The slope of this linear correlation is the second order reaction rate constant. CAP1-a was reacted separately with GSH, cysteine, N-acetylcysteine, and phenol.

A short description of data set [2]: Reaction of CAP compound with water (hydrolysis rate, stability in water). On the procedure: as §1
On the other hand, the reaction between CAP4 and water is very slow, showing a k2 of only 4.8−10^−6 M^−1·S^−1 at 25° C. and pH 7 in 50 mM PIPES.

A short description of data set [3]: Second order reaction rate constant of CAP compound with GSH (UV-Vis kinetics). The protocol: as §1
Following the study above, compounds CAP1-F, CAP2, and CAP4 each were reacted with either GSH or phenol in water or 50 mM PIPES at pH 7.
In another study, compounds CAP1-b, CAP1-F, CAP2, CAP3, CAP4, and CAP5 each were reacted with either GSH in a 50 mM PIPES and 150 mM KCl aqueous solution at pH 7 and 25° C. […] The reaction between CAP5 and GSH has a k2 as high as 3.2×10^5 M^−1·S^−1, 7×10^9 folds faster than its reaction with water under the same conditions. […] S^−1.

The nature of data set [4]: Stability in D2O observed by 1H NMR. Particulars: r.t. The text has this: 1H NMR (400 MHz, D2O) δ 8.08−7.98 (m, 2H), δ 7.92−7.85 (m, 2H), 4.41 (s, 6H), 3.75 (s, 3H).
The mark [5] stands for this setting: 50 mM PIPES and 150 mM KCl aqueous solution, pH 7, 25° C.

Regarding `C[n+]1ccccc1F.[I-]` [CAP1-a, N-methyl-2-fluoropyridinium iodide], the “second order reaction rate constant (k2), reaction with cysteine” value in data set [1] is on record as 2.8×10^2 M^−1·S^−1. Besides, in data set [2] (CAP1-a and water), the “second order reaction rate constant (k2), reaction with water” value is 4.5×10^−6 M^−1 S^−1. The “stability in water (in words)” value in data set [2] (inferred from slow reaction with water) was “high stability”. The “second order reaction rate constant (k2), reaction with GSH” value in data set [3] (25° C., pH 7, 50 mM PIPES) was 1.2×10^2 M^−1·S^−1.
For the compound `C[n+]1ccccc1F` [CAP1-b, N-methyl-2-fluoropyridinium tetrafluoroborate], in data set [3] (setting [5]), the “second order reaction rate constant (k2), reaction with GSH” value is listed as 1.2×10^2 M^−1·S^−1.
`C[n+]1ccc(S(C)(=O)=O)cc1` [CAP3, N-Methyl-4-(methylsulfonyl)pyridinium tetrafluoroborate]: in data set [3] (setting [5]), the “second order reaction rate constant (k2), reaction with GSH” value was 9.8×10^3 M^−1·S^−1.
As for `C[n+]1ccccc1S(C)(=O)=O` [CAP4, N-methyl-2-(methylsulfonyl)pyridinium tetrafluoroborate], the “second order reaction rate constant (k2), reaction with GSH” value in data set [3] (setting [5]) was 1.2×10^5 M^−1·S^−1; in data set [3] (25° C., pH 7, 50 mM PIPES) it was 5.3×10^4 M^−1·S^−1.
For the compound `C[n+]1c(Cl)cccc1S(C)(=O)=O` [CAP5, 2-Chloro-1-methyl-6-(methylsulfonyl)pyridin-1-ium tetrafluoroborate], the “second order reaction rate constant (k2), reaction with GSH” value in data set [3] (setting [5]) is given as 3.2×10^5 M^−1·S^−1.
Consider `Cn1c(S(C)(=O)=O)[n+](C)c2ccccc21` [CAP23, 1,3-dimethyl-2-(methylsulfonyl)-1H-benzo[d]imidazol-3-ium tetrafluoroborate], for which, in data set [4], the “stability in D2O” value is “moderate stability” and the “time after which the compound is completely hydrolyzed in D2O” value is given as 12 h.
